PMC9715707, “Identification of a novel peptide ligand for the cancer-specific receptor mutation EGFRvIII using high-throughput sequencing of phage-selected peptides” (Scientific Reports, 2022)
“Also recorded” adds a separate entry of the source. Where no end group is shown, it is not given here. The star is where a group is joined. FITC = O=C1OC2(c3ccc(O)cc3Oc3cc(O)ccc32)c2ccc(NC(=S)*)cc21; Ahx = NCCCCCC(=O)O

How the values were obtained:
CLTH/EGFR WT cells [1] = test: Flow cytometry cellular binding of FITC-Ahx-peptides, EGFR WT cells; format: cell-based, human; settings: 10 µM FITC-Ahx-peptide, 20 min at RT, 0.2% DMSO, MFI minus blank cells divided by spectrofluorometer correction factor
Protocol: (§1) Flow cytometry analysis was also performed to quantitatively analyze the binding affinity of the synthetized peptides to the different cell types. Briefly, 293T, CLTH/EGFR WT and CLTH/EGFRvIII cells (100,000 cells, 500 µL) were plated in 24-well plates and incubated overnight at 37 °C in a humidified atmosphere containing 5% CO2 overnight. The next day, cells were treated with FITC-Ahx-peptides using a stock solution in pure DMSO at 5 mM to reach a final concentration of 1, 5 or 10 µM (final percentage of DMSO of 0.2%). Plates were incubated for 20 min at RT. Cells were detached from the plates by a PBS wash, transferred to FACS tubes and washed two times with 4 mL of PBS. Cells were stained with LIVE/DEAD™ Fixable Near-IR Dead Cell Stain Kit (Thermofisher) as a viability marker. Cells were analyzed by flow cytometry on a MACSQuant Analyser 16 (Miltenyi Biotec) using the MACS Quantify software to acquire and process the data. LIVE/DEAD™ Fixable dye was excited at 640 nm and fluorescence was collected with the 785/62 nm filter. FITC was excited at 488 nm and fluorescence was collected with the 525/50 nm filter. Viable cells were gated, FITC fluorescence intensity was recorded and the mean fluorescence intensity (MFI) was measured. MFI values were then normalized by subtracting MFI from blank cells and dividing by the correction factor determined using a spectrofluorometer.
Since FITC fluorescence can be impacted by the nature of the amino acids in the peptide sequence and since the conjugation rate of FITC in the peptide synthesis can fluctuate, it was needed to measure a correction factor according to the fluorescence intensity of each peptide. As flow cytometry cannot analyze fluorescence of small molecules, a spectrofluorometer was used in similar conditions (excitation and emission) to the flow cytometry conditions. […] Fluorescence intensities at 525 nm of the FITC-Ahx-peptides in PBS were measured using a Varioskan plate reader (Thermo Scientific) and the SkanIt Software 5.0. […] Linear regressions were determined for each peptide. […]

293T cells [2] = test: Flow cytometry cellular binding of FITC-Ahx-peptides, 293T cells; format: cell-based, human; settings: 20 min at RT; for Normalized MFI at 10 µM, 293T: 293T cells (negative control), 10 µM FITC-Ahx-peptide, 0.2% DMSO, MFI minus blank cells divided by spectrofluorometer correction factor
Protocol: as §1
Since FITC fluorescence can be impacted by the nature of the amino acids in the peptide sequence and since the conjugation rate of FITC in the peptide synthesis can fluctuate, it was needed to measure a correction factor according to the fluorescence intensity of each peptide. As flow cytometry cannot analyze fluorescence of small molecules, a spectrofluorometer was used in similar conditions (excitation and emission) to the flow cytometry conditions. Experiments were performed by the flow cytometry core facility at Institut Mondor de Recherche Biomédical (IMRB U955, France). Fluorescence intensities at 525 nm of the FITC-Ahx-peptides in PBS were measured using a Varioskan plate reader (Thermo Scientific) and the SkanIt Software 5.0. Samples with concentrations between at 0.625, 1.25, 2.5, 5, 10 and 20 µM were prepared in triplicates using stock solutions of peptides in DMSO at 5 mM. Samples (100 µL) were analyzed in a 96-well plate using the following conditions: temperature of 25 °C, excitation wavelength at 490 nm, excitation bandwidth of 5 nm, emission wavelength at 525 nm, by step of 1 nm, measurement time 100 ms, and upper lens. Linear regressions were determined for each peptide. The correction factor was determined by dividing each slope by the arbitrary value 100 and was used to normalize the MFI obtained by flow cytometry.

CLTH/EGFRvIII cells [3] = test: Flow cytometry cellular binding of FITC-Ahx-peptides, EGFRvIII cells; format: cell-based, human; settings: for Normalized MFI at 10 µM, vIII: EGFRvIII cells, 10 µM FITC-Ahx-peptide, 0.2% DMSO, MFI minus blank cells divided by spectrofluorometer correction factor; for Normalized MFI ratio vIII/WT from 3 different concentrations, Mean: EGFRvIII over EGFR WT cell line, mean of ratios at 1, 5 and 10 µM
Source text: Since FITC fluorescence can be impacted by the nature of the amino acids in the peptide sequence and since the conjugation rate of FITC in the peptide synthesis can fluctuate, it was needed to measure a correction factor according to the fluorescence intensity of each peptide. As flow cytometry cannot analyze fluorescence of small molecules, a spectrofluorometer was used in similar conditions (excitation and emission) to the flow cytometry conditions. […] Fluorescence intensities at 525 nm of the FITC-Ahx-peptides in PBS were measured using a Varioskan plate reader (Thermo Scientific) and the SkanIt Software 5.0. Samples with concentrations between at 0.625, 1.25, 2.5, 5, 10 and 20 µM were prepared in triplicates using stock solutions of peptides in DMSO at 5 mM. Samples (100 µL) were analyzed in a 96-well plate using the following conditions: temperature of 25 °C, excitation wavelength at 490 nm, excitation bandwidth of 5 nm, emission wavelength at 525 nm, by step of 1 nm, measurement time 100 ms, and upper lens. Linear regressions were determined for each peptide. The correction factor was determined by dividing each slope by the arbitrary value 100 and was used to normalize the MFI obtained by flow cytometry.

CLTH/EGFRvIII cells [4] = test: Flow cytometry binding of phage-displayed peptides, EGFRvIII cells; format: cell-based, human; settings: phage-displayed peptide (M13), ~10^10 phages pre-absorbed on 293T cells, 1 h at 4 °C; anti-M13_biotin + anti-biotin_PE vs secondary-only
Protocol: (§2) Prior to being tested with the selected phages or peptides, each cell line was incubated with different commercial antibodies to confirm their phenotype (Fig. S3). A monoclonal anti-EGFR WT antibody (Life Technologies) and an anti-EGFRvIII primary antibody (Millipore) were used in flow cytometry experiments to evaluate the expression of EGFR WT and EGFRvIII receptors on CLTH/EGFR WT cells and CLTH/EGFRvIII cells respectively. Anti-IgG1 conjugated to phycoerythrin (PE) (Miltenyi Biotec) was used as a secondary antibody to read the fluorescence of PE. 293T cells were tested as a negative control. A phage-free control experiment was also performed on each cell type prior to testing phages. Anti-M13 conjugated to biotin (Abcam) was used as a primary antibody, anti-mouse IgG3 kappa monoclonal conjugated to biotin (Abcam) as isotype control and anti-biotin conjugated to PE (Miltenyi Biotec) as secondary antibody. A list of the antibodies is available in Table S3.
Binding of the selected phages on 293T human embryo kidney, CLTH/EGFR WT and CLTH/EGFRvIII cells was characterized by flow cytometry. Approximately 1 × 10^6 293T cells (expressing endogenous levels of EGFR WT) were collected, washed with cold PBS and blocked with 2%w/v milk-PBS (MPBS), rotating for 30 min at 4 °C. […] The blocked phages were then added to the blocked cells and incubated rotating for 1 h at 4 °C. After centrifugation at 500g for 3 min, the supernatant containing non-bound phages was collected. This step allowed the removal of phages that interacted with this EGFR negative cell line (i.e. not an EGFR-specific binding). The supernatant was then used to resuspend transfected cells washed beforehand (CLTH/EGFR WT expressing EGFR WT and CLTH/EGFRvIII expressing EGFRvIII). Treated cells were incubated for 1 h at 4 °C, collected by centrifugation and washed two times with PBS at pH 7.4. Cells were stained with Viobility™ 405/520 fixable dye (Miltenyi Biotec) as a viability marker. Cells were analyzed by flow cytometry on a MACSQuant Analyser 16 (Miltenyi Biotec) using the MACS Quantify software to acquire and process the data. Viobility™ 405/520 fixable dye was excited at 405 nm and fluorescence was collected with the 525/50 nm filter. PE was excited at 488 nm and fluorescence was collected with the 579/34 nm filter. Viable cells were gated, and PE fluorescence intensity was recorded.

CLTH/EGFR WT cells [5] = test: Flow cytometry binding of phage-displayed peptides, EGFR WT cells; format: cell-based, human; settings: phage-displayed peptide (M13), 1 h at 4 °C
Protocol: as §2, with “Anti-M13 conjugated to biotin (Abcam) was used as a primary antibody, anti-mouse IgG3 kappa monoclonal conjugated to biotin (Abcam) as isotype control and anti-biotin conjugated to PE (Miltenyi Biotec) as secondary antibody. A list of the antibodies is available in Table S3.” left out
(§3) Binding of the selected phages on 293T human embryo kidney, CLTH/EGFR WT and CLTH/EGFRvIII cells was characterized by flow cytometry. […] Cells were analyzed by flow cytometry on a MACSQuant Analyser 16 (Miltenyi Biotec) using the MACS Quantify software to acquire and process the data. Viobility™ 405/520 fixable dye was excited at 405 nm and fluorescence was collected with the 525/50 nm filter. PE was excited at 488 nm and fluorescence was collected with the 579/34 nm filter. Viable cells were gated, and PE fluorescence intensity was recorded.

293T cells [6] = test: Flow cytometry binding of phage-displayed peptides, 293T cells; format: cell-based, human; settings: phage-displayed peptide (M13), 1 h at 4 °C
Protocol: as §2, with “Anti-M13 conjugated to biotin (Abcam) was used as a primary antibody, anti-mouse IgG3 kappa monoclonal conjugated to biotin (Abcam) as isotype control and anti-biotin conjugated to PE (Miltenyi Biotec) as secondary antibody. A list of the antibodies is available in Table S3.” left out
as §3

EGFRvIII = molecular target: T1, EGFRvIII (Homo sapiens, UniProt P00533, DELINS30-297G); test: Microscale thermophoresis, EGFRvIII in solution; format: binding; settings: read-out: Kd for EGFRvIII (MST, estimated)
T1 construct: using purified and active extracellular domain of the EGFRvIII protein; purchased Sino Biological 29662-H08B

EGFR WT = settings: prior art; cited from earlier work
Source text: Two short peptides intended for EGFR targeting of tumor cells have been described in the prior art.

[7] = molecular target: epidermal growth factor tyrosine kinase receptor mutation variant III (EGFRvIII) on CLTH/EGFRvIII cells (human) (UniProt P00533); test: flow cytometry on cells; FITC-Ahx-peptides at 1, 5 or 10 µM (0.2% DMSO) on plated 293T, CLTH/EGFR WT and CLTH/EGFRvIII cells, 20 min at RT; FITC MFI of viable cells, normalised by blank cells and a spectrofluorometer correction factor

FITC-Ahx-VLGREEWSTSYW-CONH2
Normalized MFI at 10 µM, WT (CLTH/EGFR WT cells [1]): 4.0
Normalized MFI at 10 µM, 293T (293T cells [2]): 5.1

{FITC-Ahx}-YHWYGYTPENVI-NH2 (SMILES CC[C@H](C)[C@H](NC(=O)[C@@H](NC(=O)[C@H](CC(N)=O)NC(=O)[C@H](CCC(=O)O)NC(=O)[C@@H]1CCCN1C(=O)[C@@H](NC(=O)[C@H](Cc1ccc(O)cc1)NC(=O)CNC(=O)[C@H](Cc1ccc(O)cc1)NC(=O)[C@H](Cc1c[nH]c2ccccc12)NC(=O)[C@H](Cc1c[nH]cn1)NC(=O)[C@H](Cc1ccc(O)cc1)NC(=O)CCCCCNC(=S)Nc1ccc2c(c1)C(=O)OC21c2ccc(O)cc2Oc2cc(O)ccc21)[C@@H](C)O)C(C)C)C(N)=O) [reference compound]
Normalized MFI at 10 µM, vIII (CLTH/EGFRvIII cells [3]; 20 min at RT): 9.7
Normalized MFI ratio vIII/WT from 3 different concentrations, Mean (CLTH/EGFRvIII cells [3]): 1.80
Normalized MFI at 10 µM, WT (CLTH/EGFR WT cells [1]): 4.5
Normalized MFI at 10 µM, 293T (293T cells [2]): 7.6

VLGREEWSTSYW-M13
specific binding of phage-displayed peptide to EGFRvIII cells (PE fluorescence) (CLTH/EGFRvIII cells [4]): showed a specific binding to EGFRvIII
difference in fluorescence intensity, anti-M13 vs secondary-only antibody, EGFR WT cells (CLTH/EGFR WT cells [5]): no significant difference in these fluorescence intensities
difference in fluorescence intensity, anti-M13 vs secondary-only antibody, 293T cells (293T cells [6]): no significant difference in these fluorescence intensities

NPIVRSAEDGQL [top peptide selected from the NGS data analysis]
specific binding of phage-displayed peptide to EGFRvIII cells (PE fluorescence) (CLTH/EGFRvIII cells [4]): did not show a specific binding

FALGEA-NH2 [FALGEA]
Kd (EGFRvIII): 3.7 µM

{FITC-Ahx}-FALGEA-NH2 (SMILES CC(C)C[C@H](NC(=O)[C@H](C)NC(=O)[C@H](Cc1ccccc1)NC(=O)CCCCCNC(=S)Nc1ccc2c(c1)C(=O)OC21c2ccc(O)cc2Oc2cc(O)ccc21)C(=O)NCC(=O)N[C@@H](CCC(=O)O)C(=O)N[C@@H](C)C(N)=O) [FALGEA control peptide with FITC-Ahx tag at the N-terminus, reference compound]
Normalized MFI at 10 µM, vIII (CLTH/EGFRvIII cells [3]; 20 min at RT): 1.8
Normalized MFI ratio vIII/WT from 3 different concentrations, Mean (CLTH/EGFRvIII cells [3]): 2.50
Normalized MFI at 10 µM, WT (CLTH/EGFR WT cells [1]): 0.7
Normalized MFI at 10 µM, 293T (293T cells [2]): 0.9

VLGREEWSTSYW [novel 12-mer peptide ligand of EGFRvIII selected by phage display]
specific binding of phage-displayed peptide to EGFRvIII cells (PE fluorescence) (CLTH/EGFRvIII cells [4]): appeared to show specific binding to the EGFRvIII cells compared to the EGFR WT and the parental cell
cellular binding to EGFRvIII cells, qualitative (CLTH/EGFRvIII cells [3]; FITC-Ahx-peptide, 20 min at RT, flow cytometry): A shift of fluorescence was observed for the VLGREEWSTSYW peptide on EGFRvIII compared to 293T and EGFR WT cell lines; also recorded: much higher for VLGREEWSTSYW compared to the FALGEA control; also recorded: binds to EGFRvIII cells with high efficiency; also recorded: greater affinity in cell surface binding experiments; also recorded: weaker signal with the free C-terminal FITC labeled peptide compared to the phage displayed format of the same peptide
specificity for EGFRvIII cells versus EGFR WT cells, qualitative (CLTH/EGFRvIII cells [3]; FITC-Ahx-peptide, flow cytometry, MFI ratio vIII/WT at 1, 5, 10 µM): shows the specificity to EGFRvIII versus EGFR WT for VLGREEWSTSYW compared to the control peptide YHWYGYTPENVI; also recorded: good specificity compared to EGFR WT cells; also recorded: better selectivity to EGFRvIII cells than to EGFR WT cells compared to FALGEA
non-specific interactions (293T cell binding), qualitative (293T cells [2]; FITC-Ahx-peptide, flow cytometry): minimized for VLGREEWSTSYW compared to the YHWYGYTPENVI control; also recorded: less nonspecific interaction (293T cells); also recorded: significantly less nonspecific cellular binding

NESGITRIALQD [top peptide selected from the NGS data analysis]
specific binding of phage-displayed peptide to EGFRvIII cells (PE fluorescence) (CLTH/EGFRvIII cells [4]): did not show a specific binding

YHWYGYTPENVI
reported binding to EGFR WT, qualitative (YHWYGYTPENVI) (EGFR WT): proven to bind to EGFR WT

B1: FITC-Ahx-FALGEA-CONH2 (peptide)
peptide: {FITC-Ahx}-FALGEA-NH2
SMILES: CC(C)C[C@H](NC(=O)[C@H](C)NC(=O)[C@H](Cc1ccccc1)NC(=O)CCCCCNC(=S)Nc1ccc2c(c1)C(=O)OC21c2ccc(O)cc2Oc2cc(O)ccc21)C(=O)NCC(=O)N[C@@H](CCC(=O)O)C(=O)N[C@@H](C)C(N)=O
normalized MFI at 10 µM [7]: 1.8
normalized MFI ratio vIII/WT from 3 different concentrations (mean) [7]: 2.5
